Among the data in patent US8957064B2, “Fused pyrimidines” (Bayer Intellectual Property GmbH, priority 2009, dated 2015) are IC50 values, retold here.

Assay [1] deals with His-tagged human recombinant kinase full-length Akt1 (Homo sapiens (Human), UniProt P31749). Put plainly: Akt1 kinase assay (Akt1 TR-FRET assay, Biological Assay 1.0). Type of assay: biochemical. The following applies: 10 μM ATP, 1 μM biotinylated peptide substrate, 60 min at 22° C. The method in brief:
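Insect-cell-expressed full-length His-Akt1 (~0.05 ng/μl) preincubated 15 min with compound, then reacted 60 min at 22 °C with 10 μM ATP and 1 μM biotinylated peptide (final), pH 7.5. Phosphopeptide detected by HTRF (665/620 nm ratio). Data normalised to no-inhibitor and no-enzyme controls.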
(TR-FRET usually uses a lanthanide donor and a delayed reading to cut background.)

Assay [2] deals with His-tagged human recombinant kinase full-length Akt2 activated by PDK1 (Homo sapiens (Human), UniProt P31751). The assay can be described thus: Akt2 kinase assay (Akt2 TR-FRET assay, Biological Assay 2.0). Type of assay: biochemical. The note with it: 10 μM ATP, 1 μM biotinylated peptide substrate, 60 min at 22° C. The method, boiled down:
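Compound was pre-incubated with enzyme (~0.2 ng/µl final) for 15 min at 22 °C in Tris pH 7.5, 5 mM MgCl2, then reacted 60 min with 10 µM ATP and 1 µM biotinylated peptide. Phosphopeptide was detected by TR-FRET (665/622 nm ratio). Data were normalised to no-inhibitor (0%) and no-enzyme (100%) controls.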

His-tagged human recombinant kinase full-length Akt2 activated by PDK1, sequence (P31751 whole entry): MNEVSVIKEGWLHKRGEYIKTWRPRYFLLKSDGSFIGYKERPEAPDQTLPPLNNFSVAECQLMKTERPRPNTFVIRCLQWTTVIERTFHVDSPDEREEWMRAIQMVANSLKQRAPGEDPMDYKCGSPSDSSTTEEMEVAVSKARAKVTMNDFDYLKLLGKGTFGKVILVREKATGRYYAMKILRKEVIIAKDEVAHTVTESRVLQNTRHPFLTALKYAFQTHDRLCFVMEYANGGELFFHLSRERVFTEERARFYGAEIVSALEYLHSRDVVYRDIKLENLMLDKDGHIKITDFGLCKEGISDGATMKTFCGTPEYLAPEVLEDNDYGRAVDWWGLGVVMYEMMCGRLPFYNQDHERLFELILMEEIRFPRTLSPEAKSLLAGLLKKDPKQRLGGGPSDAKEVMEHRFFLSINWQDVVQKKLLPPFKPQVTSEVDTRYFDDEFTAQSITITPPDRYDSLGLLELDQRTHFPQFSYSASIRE
His-tagged human recombinant kinase full-length Akt1, sequence (P31749 whole entry): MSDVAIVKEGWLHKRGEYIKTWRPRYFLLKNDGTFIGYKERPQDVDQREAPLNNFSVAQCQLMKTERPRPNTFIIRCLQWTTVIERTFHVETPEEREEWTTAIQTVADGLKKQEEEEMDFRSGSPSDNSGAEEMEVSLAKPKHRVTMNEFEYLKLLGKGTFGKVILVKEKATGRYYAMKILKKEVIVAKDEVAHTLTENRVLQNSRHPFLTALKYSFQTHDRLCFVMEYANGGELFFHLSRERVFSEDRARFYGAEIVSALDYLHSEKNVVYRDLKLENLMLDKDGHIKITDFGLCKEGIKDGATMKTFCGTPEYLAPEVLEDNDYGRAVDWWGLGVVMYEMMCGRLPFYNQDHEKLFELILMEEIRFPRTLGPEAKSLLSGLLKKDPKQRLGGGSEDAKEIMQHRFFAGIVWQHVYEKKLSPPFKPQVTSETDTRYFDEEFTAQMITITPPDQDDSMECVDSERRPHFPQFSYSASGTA

What is called IC50 is the concentration that inhibits the measured activity by half. As to `Fc1ccc(-c2cn3ccnc3nc2-c2ccc(CN3CCC(c4n[nH]c(-c5ccccn5)n4)CC3)cc2)cc1` [Example 52.1, 6-(4-fluorophenyl)-7-{4-[4-(5-pyridine-2-yl)-1H-[1,2,4]triazole-3-yl)-piperidine-1-ylmethyl)-phenyl}-imidazo[1,2-a]pyrimidine formiate], the values for the IC50 in assay [1] and in assay [2] were 0.008 µM and 0.032 µM, respectively.

Take `COC(=O)c1cnn2cc(-c3c(F)cccc3F)c(-c3ccc(CN4CCC(c5n[nH]c(-c6cccc(C)n6)n5)CC4)cc3)nc12` [Example 48.0, 6-(2,6-difluorophenyl)-5-(4-{4-[5-(6-methylpyridine-2-yl)-1H-[1,2,4]triazole-3-yl]-piperidine-1-ylmethyl}-phenyl)-pyrazolo[1,5-a]pyrimidine-3-carboxylic acid methyl ester]: the IC50 amounted to 0.007 µM in assay [1] and 0.082 µM in assay [2].

Turning to `Fc1ccc2nc(C3CCN(Cc4ccc(-c5nc6ccnn6cc5-c5ccccc5)cc4)CC3)[nH]c2c1` [Example 18.0, 5-{4-[4-(6-fluoro-1H-benzimidazol-2-yl)-piperidin-1-ylmethyl]-phenyl}-6-phenyl-pyrazolo[1,5-a]pyrimidine], the IC50 in assay [1] turned out to be 0.042 µM; in assay [2] it was 1.09 µM.

For `Cc1cccc(-c2nc(C3CN(Cc4ccc(-c5nc6nc(C)nn6cc5-c5ccc(F)cc5F)cc4)C3)n[nH]2)n1` [Example 35.0, 6-(2,4-difluorophenyl)-2-methyl-5-(4-{3-[5-(6-methyl-pyridine-2-yl)-1H-[1,2,4]triazole-3-yl]-azetidine-1-ylmethyl}-phenyl)-[1,2,4]triazolo[1,5-a]pyrimidine], the IC50 in assay [1] came to 0.029 µM; in assay [2], 0.042 µM.

As to `N#Cc1ccc2nc(C3CCN(Cc4ccc(-c5nc6nccn6cc5-c5ccccc5)cc4)CC3)[nH]c2c1` [Example 9.0, 2-{1-[4-(6-Phenyl-imidazo[1,2-a]pyrimidin-7-yl)-benzyl]-piperidin-4-yl}-3H-benzimidazole-5-carbonitrile], the IC50 in assay [1] came out at 0.083 µM; in assay [2] it was 0.426 µM.

Consider `CNc1c(-c2ccccc2)c(-c2ccc(CN3CC(c4n[nH]c(-c5ccccn5)n4)C3)cc2)nc2ncc(Br)n12` [Example 59.0, (3-bromo-6-phenyl-7-{4-{3-[5-(pyridine-2-yl)-1H-[1,2,4]triazole-3-yl)-azetidine-1-ylmethyl]-phenyl}-imidazo[1,2-a]pyrimidin-5-yl)-methylamine], for which the IC50 in assay [1] came to 0.042 µM; in assay [2] it was 0.128 µM.

Turning to `c1ccc(-c2cn3ccnc3nc2-c2ccc(CN3CCC(c4nc5ccncc5[nH]4)CC3)cc2)cc1` [Example 6.0, 2-{1-[4-(6-phenyl-imidazo[1,2-a]pyrimidin-7-yl)-benzyl]-piperidin-4-yl}-3H-imidazo[4,5-c]pyridine], the values for the IC50 in assay [1] and in assay [2] were 0.157 µM and 1.22 µM, respectively.

`COC(=O)c1cnn2cc(-c3c(F)cccc3F)c(-c3ccc(CN4CCC(c5n[nH]c(-c6ccccn6)n5)CC4)cc3)nc12` [Example 48.1, 6-(2,6-difluorophenyl)-5-(4-{4-[5-(pyridine-2-yl)-1H-[1,2,4]triazole-3-yl]-piperidine-1-ylmethyl}-phenyl)-pyrazolo[1,5-a]pyrimidine-3-carboxylic acid methyl ester]: the IC50 in assay [1] was 0.005 µM; in assay [2], 0.203 µM.

Take `Cc1cccc(-c2nc(C3CN(Cc4ccc(-c5nc6nc(C)cn6cc5-c5ccccc5)cc4)C3)n[nH]2)n1` [Example 38.0, 2-methyl-7-(4-{3-[5-(6-methylpyridine-2-yl)-1H-[1,2,4]triazole-3-yl]-azetidine-1-ylmethyl}-phenyl)-6-phenyl-imidazo[1,2-a]pyrimidine]: the IC50 amounted to 0.013 µM in assay [1] and 0.016 µM in assay [2].

For `Cc1cccc(-c2nc(C3CN(Cc4ccc(-c5nc6nc(C)cn6c(NC(C)C)c5-c5ccccc5)cc4)C3)n[nH]2)n1` [Example 65.0, isopropyl-(2-methyl-6-phenyl-7-{4-{3-[5-(6-methylpyridine-2-yl)-1H-[1,2,4]triazole-3-yl)-azetidine-1-ylmethyl]-phenyl}-imidazo[1,2-a]pyrimidin-5-yl)-amine], the IC50 in assay [1] was 0.033 µM; in assay [2] it was 0.036 µM.

With `CNc1c(-c2ccccc2)c(-c2ccc(CN3CC(c4n[nH]c(-c5ccccn5)n4)C3)cc2)nc2nccn12` [Example 58.0, methyl-(6-phenyl-7-{4-{3-[5-(pyridine-2-yl)-1H-[1,2,4]triazole-3-yl)-azetidine-1-ylmethyl]-phenyl}-imidazo[1,2-a]pyrimidin-5-yl)-amine], the IC50 came out at 0.03 µM in assay [1] and 0.476 µM in assay [2].

Turning to `OCc1cn2cc(-c3ccccc3)c(-c3ccc(CN4CC(c5n[nH]c(-c6ccccn6)n5)C4)cc3)nc2n1` [Example 75.0], the 50% inhibitory concentration (IC50) worked out at 0.072 µM in assay [1] and 0.124 µM in assay [2].

For `Cc1nc2nc(-c3ccc(CN4CCC(c5nc6ccncc6[nH]5)CC4)cc3)c(-c3ccccc3)cn2n1` [Example 14.0, 5-{4-[4-(3H-imidazo[4,5-c]pyridin-2-yl)-piperidin-1-ylmethyl]-phenyl}-2-methyl-6-phenyl-[1,2,4]triazolo[1,5-a]pyrimidine], the IC50 in assay [1] is 3 µM; in assay [2] it was 5.84 µM.

On to `Cc1cccc(-c2nc(C3CN(Cc4ccc(-c5nc6nc(C7CC7)nn6cc5-c5ccccc5)cc4)C3)n[nH]2)n1` [Example 41.0, 2-cyclopropyl-5-(4-{3-[5-(6-methylpyridine-2-yl)-1H-[1,2,4]triazole-3-yl]-azetidine-1-ylmethyl}-phenyl)-6-phenyl-[1,2,4]triazolo[1,5-a]pyrimidine], for which the IC50 in assay [1] and in assay [2] was 0.01 µM in each case.

In the case of `Cc1nc2nc(-c3ccc(CN4CCC(c5n[nH]c(-c6ccccn6)n5)CC4)cc3)c(-c3cc(F)ccc3F)cn2n1` [Example 76.0, 6-(2,5-difluorophenyl)-2-methyl-5-{4-[4-(5-pyridine-2-yl-1H-[1,2,4]triazole-3-yl)-piperidine-1-ylmethyl]-phenyl}-[1,2,4]triazolo[1,5-a]pyrimidine], the figures for the IC50 in assay [1] and in assay [2] were 0.06 µM and 0.154 µM, respectively.

Regarding `CSc1nc2nc(-c3ccc(CN4CCC(c5n[nH]c(-c6cnccn6)n5)CC4)cc3)c(-c3ccccc3)cn2n1` [Example 72.3, 2-methylsulfanyl-6-phenyl-5-{4-[4-(5-pyrazin-2-yl-1H-[1,2,4]triazol-3-yl)-piperidin-1-ylmethyl]-phenyl}-[1,2,4]triazolo[1,5-a]pyrimidine], the values for the IC50 in assay [1] and in assay [2] were 0.026 µM and 0.08 µM, respectively.

As to `Cc1nc2nc(-c3ccc(CN4CCC(c5nc6ccc(F)cc6[nH]5)CC4)cc3)c(-c3ccccc3)cn2n1` [Example 13.0, 5-{4-[4-(6-fluoro-1H-benzoimidazol-2-yl)-piperidin-1-ylmethyl]-phenyl}-2-methyl-6-phenyl-[1,2,4]triazolo[1,5-a]pyrimidine], the figures for the IC50 in assay [1] and in assay [2] were 0.112 µM and 0.228 µM, respectively.

As for `CC(C)Nc1c(-c2ccccc2)c(-c2ccc(CN3CC(c4n[nH]c(-c5ccccn5)n4)C3)cc2)nc2nc(-c3ccccn3)nn12` [Example 68.0], the IC50 in assay [1] worked out at 0.024 µM; in assay [2], 0.088 µM.

In the case of `Cc1nc2nc(-c3ccc(CN4CCC(n5ncc6c(N)ncnc65)CC4)cc3)c(-c3ccccc3)cn2n1` [Example 22.0, 1-{1-[4-(2-methyl-6-phenyl-[1,2,4]-triazolo[1,5-a]pyrimidin-5-yl)benzyl]-piperidin-4-yl}-1H-pyrazolo[3,4-d]pyrimidin-4-ylamine], the IC50 in assay [1] was 0.288 µM; in assay [2], 0.417 µM.

With `Cc1cccc(-c2nc(C3CCN(Cc4ccc(-c5nc6nccn6cc5-c5ccc(F)cc5)cc4)CC3)n[nH]2)n1` [Example 52.0, 6-(4-fluorophenyl)-7-(4-{4-[5-(6-methylpyridine-2-yl)-1H-[1,2,4]triazole-3-yl]-piperidine-1-ylmethyl}-phenyl)-imidazo[1,2-a]pyrimidine formiate], the IC50 stood at 0.009 µM in assay [1] and 0.017 µM in assay [2].

`COC(=O)c1cn2cc(-c3ccccc3)c(-c3ccc(CN4CC(c5n[nH]c(-c6ccccn6)n5)C4)cc3)nc2n1` [Example 74.1, 6-phenyl-7-{4-[3-[5-pyridine-2-yl-1H-[1,2,4]triazole-3-yl)azetidine-1-ylmethyl]-phenyl}-imidazo[1,2-a]pyrimidine-2-carboxylic acid methyl ester]: the IC50 turned out to be 0.01 µM in assay [1] and 0.017 µM in assay [2].

For the compound `CNc1c(-c2ccccc2)c(-c2ccc(CN3CC(c4n[nH]c(-c5ccccn5)n4)C3)cc2)nc2nc(C)cn12` [Example 60.0, methyl-(2-methyl-6-phenyl-7-{4-{3-[5-(pyridine-2-yl)-1H-[1,2,4]triazole-3-yl)-azetidine-1-ylmethyl]-phenyl}-imidazo[1,2-a]pyrimidin-5-yl)-amine], the IC50 came to 0.016 µM in assay [1] and 0.055 µM in assay [2].

Turning to `Cc1cccc(-c2nc(C3CN(Cc4ccc(-c5nc6nc(-c7ccccn7)nn6c(NC(C)C)c5-c5ccccc5)cc4)C3)n[nH]2)n1` [Example 69.0, isopropyl-(6-phenyl-2-pyridine-2-yl-5-{4-[3-[5-(6-methylpyridine-2-yl)-1H-[1,2,4]triazole-3-yl)-azetidine-1-ylmethyl]-phenyl}-[1,2,4]triazolo[1,5-a]pyrimidin-7-yl)-amine], the IC50 in assay [1] stood at 0.014 µM; in assay [2], 0.016 µM.

As to `Cc1nc2nc(-c3ccc(CN4CCC(c5nc6ccc(C(F)(F)F)cc6[nH]5)CC4)cc3)c(-c3ccccc3)cn2n1` [Example 21.0, 2-methyl-6-phenyl-5-{4-[4-(6-trifluoromethyl-1H-benzimidazol-2-yl)-piperidin-1-ylmethyl]-phenyl}-[1,2,4]-triazolo[1,5-a]pyrimidine], the figures for the IC50 in assay [1] and in assay [2] were 1.45 µM and 2.5 µM, respectively.
